Experimental data as given in article PMC10354055, “An optimized Nurr1 agonist provides disease-modifying effects in Parkinson’s disease models” (Nature Communications, 2023).
Values joined by “and” are separate entries in the source; they are usually repeats but may differ in a detail not shown here. Equal values may be shown once.

Assays:
Format in all cases: in vivo, mouse
MPTP-induced male mice [1] = experiment: AIMs scoring (dyskinesia), MPTP-induced PD model mice; settings: for AIMs score (20-140 min): Figure 4f, MPTP-induced mice, individual animal values
Description: (§1) Male C57BL/6 J mice (8–10 weeks, 25–30 g; Jackson Laboratories) were randomly assigned to 5 groups including vehicle (VEH), MPTP, MPTP + L-DOPA, MPTP + CQ and MPTP + 4A7C-301 (n ≥ 7 for each group). MPTP (Sigma-Aldrich) was intraperitoneally (i.p.) injected (30 mg/kg) for 5 days (Day 1-5). Different dosages of CQ (20, 40, and 80 mg/kg) and 4A7C-301 (1, 5, 20 mg/kg) were first tested to determine the effective dose window, then 40 and 5 mg/kg doses were finally selected for CQ and 4A7C-301 respectively to show the most prominent effects. CQ or 4A7C-301 was dissolved in PBS and administrated (i.p.) for 16 days starting with MPTP injection (Day 1-16). To test dyskinetic involuntary behavior, an L-DOPA injected group was included, which received 50 mg/kg of L-DOPA and 15 mg/kg of benserazide (Sigma-Aldrich) (i.p.) for 16 days (Day 1–16). All compounds were administered 6 h post-MPTP injection to avoid any effect of compounds on the MPTP metabolism in the brain. Motor and non-motor related behavior tests were performed on the following days as described in Fig. 4a in an assessor- and observer-blinded fashion. Pre-training and baseline setup for motor-related behaviors were performed 3 days prior to the injections. Mice were sacrificed and subjected to immunohistochemistry. Mice were housed at the Animal Care Facilities of McLean Hospital under a 12-h light/12-h dark cycle, ambient temperature and humidity. Animals were handled in accordance with McLean Hospital’s Institutional Animal Care and Use Committee (Protocol #: 2015N000002) and followed National Institutes of Health guidelines.
Abnormal involuntary movements (AIMs) were scored using the developed mouse dyskinesia rating scale as described in Sebastianutto et al.. Briefly, 4 mice were recorded simultaneously with a Swann HD Security System (B&H Photo-Video Inc.) for 2 min per session, every 20 min during the 140 min following drug injections (i.e., total 7 sessions), on every other or third day (Day 2, 4, 7, 9, 11, 13, and 16). Dyskinetic movements were scored for 3 subtypes of basic AIMs including axial, forelimb and orolingual AIMs, based on the severity scale from 0 to 4 which measures the duration of AIMs (0 = no dyskinesia; 1 = display dyskinesia for <50% of the observation time; 2 = display dyskinesia for >50% of the observation time; 3 = display dyskinesia for the entire observation period but ceased upon external stimuli; 4 = display continuous and unceasing dyskinesia). To get a better and more sensitive validation of mice dyskinesia, we included an amplitude AIMs score, which rates the degree of deviation of body part or muscle position from its resting position on a 0-4 scale as previously described. Finally, global AIMs score was calculated by multiplying basic AIMs and amplitude AIMs scores for each subtype on each session. Data points were plotted as the grand total of individual AIMs score on each testing day.

MPTP-induced male mice [2] = experiment: IHC/stereology of TH+ fibers, TH+ DA neurons and NeuN+ neurons, MPTP-induced mice; settings: MPTP-induced mice, individual animal values
Description: as §1, with “MPTP” for “Male C57BL/6 J mice (8–10 weeks, 25–30 g; Jackson Laboratories) were randomly assigned to 5 groups including vehicle (VEH), MPTP, MPTP + L-DOPA, MPTP + CQ and MPTP + 4A7C-301 (n ≥ 7 for each group). MPTP”, “Different dosages of CQ (20, 40, and 80 mg/kg) and 4A7C-301 (1, 5, 20 mg/kg) were first tested to determine the effective dose window, then 40 and 5 mg/kg doses were finally selected for CQ and 4A7C-301 respectively to show the most prominent effects. CQ or 4A7C-301 was dissolved in PBS and administrated (i.p.) for 16 days starting with MPTP injection (Day 1-16).” left out
(§2) Images were acquired using a KEYENCE microscope and quantified as the number or optical density of immunoreactive cells using ImageJ software.
(§3) The numbers of TH^+ DA neurons, NeuN^+ neurons, pS129 αSyn^+ cells in the SN and Iba-1^+ microglia in the SN and striatum were stereologically counted in six coronal sections (30 µm thickness) taken every 6th section (180 µm intervals) for each brain. The boundaries of the SN and striatum were delimited at low magnification (4X) to estimate each total area. Immunoreactive cells were counted with images taken at high magnification (×40) by a single blinded investigator. The group mean of the total number of immunoreactive cells from each brain was transformed as percentage of the number in the control group (%). For AAV-αSyn-induced mice, the group mean of the total number of cells in the ipsilateral side was transformed as a percentage of that observed in the contralateral side.

MPTP-induced male mice [3] = experiment: Rotarod, sub-chronic MPTP-induced PD model mice
Description: as §1, with “MPTP” for “Male C57BL/6 J mice (8–10 weeks, 25–30 g; Jackson Laboratories) were randomly assigned to 5 groups including vehicle (VEH), MPTP, MPTP + L-DOPA, MPTP + CQ and MPTP + 4A7C-301 (n ≥ 7 for each group). MPTP”, “Different dosages of CQ (20, 40, and 80 mg/kg) and 4A7C-301 (1, 5, 20 mg/kg) were first tested to determine the effective dose window, then 40 and 5 mg/kg doses were finally selected for CQ and 4A7C-301 respectively to show the most prominent effects. CQ or 4A7C-301 was dissolved in PBS and administrated (i.p.) for 16 days starting with MPTP injection (Day 1-16).” left out
Mice were pre-trained on an automated 5-lane rotarod unit (10 rpm, 3 min) for 2 days and the baseline was measured (10 rpm, 90 sec) before the rotarod test (3 days before the MPTP injection or the first rotarod test at week 2). Rotarod measurements were performed using an accelerating protocol, accelerated smoothly from 2 to 30 rpm for 5 min. Time on the rotating rod was measured automatically by placing a trip switch under the floor beneath the rotating drum.

MPTP-induced male mice [4] = experiment: IHC of Iba-1+ microglia in STR and SNpc, MPTP-induced mice; settings: MPTP-induced mice, individual animal values
Description: as §1, with “MPTP” for “Male C57BL/6 J mice (8–10 weeks, 25–30 g; Jackson Laboratories) were randomly assigned to 5 groups including vehicle (VEH), MPTP, MPTP + L-DOPA, MPTP + CQ and MPTP + 4A7C-301 (n ≥ 7 for each group). MPTP”, “Different dosages of CQ (20, 40, and 80 mg/kg) and 4A7C-301 (1, 5, 20 mg/kg) were first tested to determine the effective dose window, then 40 and 5 mg/kg doses were finally selected for CQ and 4A7C-301 respectively to show the most prominent effects. CQ or 4A7C-301 was dissolved in PBS and administrated (i.p.) for 16 days starting with MPTP injection (Day 1-16).” left out
as §2, §3

MPTP-induced male mice [5] = experiment: Cylinder test, MPTP-induced PD model mice
Description: as §1, with “MPTP” for “Male C57BL/6 J mice (8–10 weeks, 25–30 g; Jackson Laboratories) were randomly assigned to 5 groups including vehicle (VEH), MPTP, MPTP + L-DOPA, MPTP + CQ and MPTP + 4A7C-301 (n ≥ 7 for each group). MPTP”, “Different dosages of CQ (20, 40, and 80 mg/kg) and 4A7C-301 (1, 5, 20 mg/kg) were first tested to determine the effective dose window, then 40 and 5 mg/kg doses were finally selected for CQ and 4A7C-301 respectively to show the most prominent effects. CQ or 4A7C-301 was dissolved in PBS and administrated (i.p.) for 16 days starting with MPTP injection (Day 1-16).” left out
Mice were placed in a transparent plastic cylinder (15.5 cm high, 12.7 cm diameter) with a mirror behind it. Spontaneous activity was recorded and measured as counting the number of rearing events for 3 min session. A rear was considered only when the mouse touched the wall of the cylinder with its forelimb paws while standing on its hindlimbs (vertical movement) to count meaningful physiological movements.

MPTP-induced male mice [6] = experiment: Pole test, MPTP-induced PD model mice
Description: as §1, with “MPTP” for “Male C57BL/6 J mice (8–10 weeks, 25–30 g; Jackson Laboratories) were randomly assigned to 5 groups including vehicle (VEH), MPTP, MPTP + L-DOPA, MPTP + CQ and MPTP + 4A7C-301 (n ≥ 7 for each group). MPTP”, “Different dosages of CQ (20, 40, and 80 mg/kg) and 4A7C-301 (1, 5, 20 mg/kg) were first tested to determine the effective dose window, then 40 and 5 mg/kg doses were finally selected for CQ and 4A7C-301 respectively to show the most prominent effects. CQ or 4A7C-301 was dissolved in PBS and administrated (i.p.) for 16 days starting with MPTP injection (Day 1-16).” left out
Mice were trained to descend a vertical metal rod wrapped with rough tape (80 cm high, 12 mm diameter) once per day for 2 days, and then the baseline was measured before the pole test (3 days before the MPTP injection or the first pole test at week 2). Mice were placed head-upward on the pole and total descent time was recorded.

MPTP-induced male mice [7] = experiment: Olfactory discrimination test, MPTP-induced PD model mice; settings: Figure 4e, MPTP-induced mice, individual animal values
Description: as §1, with “MPTP” for “Male C57BL/6 J mice (8–10 weeks, 25–30 g; Jackson Laboratories) were randomly assigned to 5 groups including vehicle (VEH), MPTP, MPTP + L-DOPA, MPTP + CQ and MPTP + 4A7C-301 (n ≥ 7 for each group). MPTP”, “Different dosages of CQ (20, 40, and 80 mg/kg) and 4A7C-301 (1, 5, 20 mg/kg) were first tested to determine the effective dose window, then 40 and 5 mg/kg doses were finally selected for CQ and 4A7C-301 respectively to show the most prominent effects. CQ or 4A7C-301 was dissolved in PBS and administrated (i.p.) for 16 days starting with MPTP injection (Day 1-16).” left out
The olfactory discrimination test was designed based on Prediger et al.. Briefly, mice were placed in a chamber (40 (w) × 20 (d) × 20 (h) cm) segmented with two identical compartments containing fresh sawdust (non-familiar odor) on one side and unchanged sawdust (familiar odor; maintained for 3 days before the test) on the other side. Mice could choose between one or another area by freely passing through an open door, for 5 min. Mice movements were monitored with EthoVision XT version 7.0 (Noldus) and time (s) and distance (cm) traveled in each compartment were recorded and analyzed.

[8] = CQ 40, 4A7C-301 5, L-DOPA 50 mg/kg/day, i.p., 16 days

abnormal involuntary movements (AIMs) (in words) (MPTP-induced male mice [1]; CQ 40, 4A7C-301 5, L-DOPA 50 mg/kg/day, i.p.): severe AIMs
Structure (SMILES): N[C@@H](Cc1ccc(O)c(O)c1)C(=O)O [L-DOPA]
AIMs score (20-140 min) (MPTP-induced male mice [1]; day 2): 7 and 5.5 and 11 (2×) and 6 and 14 and 20 and 4 and 12 and 5 and 16.3 | AIMs score (20-140 min) (MPTP-induced male mice [1]; day 4): 9 and 13 and 14 and 12 (2×) and 16 (2×) and 17 (2×) and 27 (2×) | AIMs score (20-140 min) (MPTP-induced male mice [1]; day 7): 21.5 and 27.5 and 12 and 55 and 25.5 and 35 and 14 and 56 and 31.5 and 46 and 20 | AIMs score (20-140 min) (MPTP-induced male mice [1]; day 9): 23 (2×) and 26 and 21 (3×) and 19 (2×) and 42 and 18 and 44 | AIMs score (20-140 min) (MPTP-induced male mice [1]; day 11): 28 and 33 and 23 and 27 and 20 and 35 (2×) and 12 and 55.5 and 30.5 and 61 | AIMs score (20-140 min) (MPTP-induced male mice [1]; day 13): 63.5 and 30.5 and 43 and 32.5 and 36 and 50 and 34 and 34.5 and 53.25 and 63 and 56 | AIMs score (20-140 min) (MPTP-induced male mice [1]; day 16): 110.5 and 38.5 (2×) and 56 and 60.5 and 40.5 and 47.5 and 84 and 48.5 and 67.5 and 83.5 | TH+ neurons in SNpc (% of control) (MPTP-induced male mice [2]; Figure 4j): 85.08 % of control and 29.95 % of control and 41.78 % of control and 36.5 % of control and 16.11 % of control and 47.32 % of control and 20.39 % of control | NeuN+ neurons in SNpc (% of control) (MPTP-induced male mice [2]; Figure 4k): 54.87 % of control and 63.58 % of control and 65.33 % of control and 79.48 % of control | TH fiber density in STR (% of control) (MPTP-induced male mice [2]; Figure 4h): 32.4 % of control and 36.19 % of control and 33.35 % of control and 30.68 % of control and 30.71 % of control and 45.79 % of control and 28.8 % of control | motor function, rotarod (in words) (MPTP-induced male mice [3]; [8]): significantly rescued | Latency to fall (MPTP-induced male mice [3]; Figure 4b, MPTP-induced mice, individual animal values): 137.97 s and 138.13 s and 80.13 s and 101.23 s and 128.1 s and 204.93 s and 146.8 s and 175.2 s and 116.5 s and 196.07 s | Iba-1+ cells in STR (% of control) (MPTP-induced male mice [4]; Figure 4m): 163.11 % of control and 168.08 % of control and 185.26 % of control and 234.36 % of control and 189.06 % of control and 208.32 % of control and 222.78 % of control | Iba-1+ cells in SNpc (% of control) (MPTP-induced male mice [4]; Figure 4n): 319.52 % of control and 324.44 % of control and 366.71 % of control and 419.8 % of control and 373.6 % of control and 282.16 % of control and 446.35 % of control | motor function, cylinder test (in words) (MPTP-induced male mice [5]; [8]): significantly rescued | Number of rearing (MPTP-induced male mice [5]; Figure 4d, MPTP-induced mice, individual animal values): 34 and 77 and 71 and 22 and 24 and 17 and 21 and 55 and 32 and 29 | motor function, pole test (in words) (MPTP-induced male mice [6]; [8]): significantly rescued | Time to traverse (MPTP-induced male mice [6]; Figure 4c, MPTP-induced mice, individual animal values): 8.78 s and 7.65 s and 6.89 s and 8.14 s and 4.4 s and 7.41 s and 5.91 s and 7.98 s and 7.2 s and 9.47 s | Velocity (MPTP-induced male mice [7]): 4.7 cm/s and 5.67 cm/s and 6.49 cm/s and 5.88 cm/s and 6.16 cm/s and 7.7 cm/s and 9.82 cm/s and 6.86 cm/s and 7.1 cm/s and 6.45 cm/s and 7.2 cm/s | Duration to stay (sec), New bedding (MPTP-induced male mice [7]; New bedding): 183.25 s and 108.99 s and 116.25 s and 132.99 s and 167.47 s and 141.68 s and 212.98 s and 167.63 s and 167.4 s and 102.43 s and 140.79 s | Duration to stay (sec), Old bedding (MPTP-induced male mice [7]; Old bedding): 133.6 s and 197.16 s and 159.56 s and 114.75 s and 189.57 s and 183.55 s and 166.31 s and 132.11 s and 158.67 s and 90.56 s and 134.77 s
